Test results taken from a melting point compilation (Tetko et al.; mined from patent text by program, amines drawn as free bases though some values may be those of a salt).

| Structure (SMILES) | melting point |
| --- | --- |
| O=C1CN(c2ccc(C(Br)C(Br)c3ccccc3)cc2OCc2ccccc2)S(=O)(=O)N1 (configuration not stated) | 173 to 175 °C |
| Oc1cc2c(cc1O)-c1cc3cc(O)c(O)cc3nc1CC2 | > 220 °C |
| Cn1c(=O)c2c(-c3nc(C4CC4)no3)ncn2c2ccccc21 | 184 to 190 °C |
| COc1cc(Cc2sc3ccccc3c2S(=O)(=O)Nc2onc(C)c2Br)cc(OC)c1OC | 154 to 156 °C |
| COc1cc2ccc3c4cc5c(cc4cnc3c2cc1OC)OCO5 | 275 to 277 °C |
| COC(=O)C1CCCN1C(=O)c1ccccc1 (configuration not stated) | 88.5 to 90 °C |
| CC(=O)N(C(C)=O)c1ncc(C#Cc2cnn3c(C(F)(F)F)cc(-c4ccc(C(F)(F)F)cc4)nc23)cn1 | 253 to 254 °C |
| Brc1cc(-c2ccncc2)cnc1Br | 150 to 155 °C |
| O=C(CSc1n[nH]c(-c2ccco2)n1)C12CC3CC(CC(C3)C1)C2 | 177 to 178 °C |
| Cc1ccc(Nc2nnc(Cc3ccncc3)c3ccccc23)cc1C | 180 to 181 °C |
| Cc1oc(-c2cccs2)nc1COc1ccc(Cn2cc(CCC(=O)O)c(-c3ccccc3)c2)cc1 | 117 to 118 °C |
| Cc1cc(C)nc(CCOc2ccc(NC(=O)N(C)C)cc2)c1 | 113 to 114 °C |
| O=[N+]([O-])c1ccc(Cc2nc3c(s2)CCCC3)cc1 | 118 to 119 °C |
| CCCCCCCCc1ccc(OCC(=O)Cn2cccc2)cc1 | 58 to 59 °C |
| Nc1nc(NCCC2CCC3(CC2)OCCO3)nc2c1ncn2C1OC(CO)C(O)C1O (configuration not stated) | 133 to 137 °C |
| CCN(CC)c1ccc2c(C)c(C#Cc3ccccc3)c(=O)oc2c1 | 142 to 144 °C |
| OCC1=C(c2cc3c(Cl)cccc3s2)N2CCN=C2S1 | 170 to 172 °C |
| FC(F)(F)c1cccc(-c2ccnc3c(Cl)cnn23)c1 | 155 to 157 °C |
| COc1cc2c(cc1OCc1ccccc1)CCN(C(=O)c1ccccc1OC)C2=O | 163 to 164 °C |
| CCOC(=O)c1nc2ccccc2n1[C@@H]1CC(C)(C)Oc2ccc(C#N)cc21 | 169 to 171 °C |
| C=CCSc1ccc(OCc2ccccc2)nn1 | 56 to 58 °C |
| CCCCc1nn(-c2cc([N+](=O)[O-])ccc2Br)c(=O)[nH]1 | 125 to 127 °C |
| COc1ccc(Oc2cccc3c2C2(COc4cc5c(cc42)OCCO5)C(=O)N3C)cc1 (configuration not stated) | 55 to 58 °C |
| CC(C)c1cn2ccccc2c1S(=O)(=O)c1ccc(OCCCN(C)C)cc1 | 90 to 92 °C |
| CC(=O)NCc1cc(CCC(=O)O)no1 | 134 °C |
| CC[C@H]1[C@H](O)C2(CC2)C(=O)N1c1ccc(C#N)c(C(F)(F)F)c1 | 106 to 110 °C |

| Structure (SMILES) | melting point |
| --- | --- |
| COC(=O)[C@H](Cc1ccc(O)cc1)NC(=O)C1(NC(=O)[C@@H](SC(C)=O)C(C)C)CCCC1 | 157 to 158 °C |
| S=C(NN=C(CCCCl)c1ccccc1)Nc1ccccc1 | 107 to 109 °C |
| Cc1cccc(Nn2c(C)c(C)[nH]c2=S)c1 | 230 °C |
| O=C(c1ccc(Cl)cc1)c1c(Cl)nc2n(c1=O)CCS2 | 174 °C |
| Clc1ccc(C2=NNCC2n2cc(Cl)cn2)cc1 (configuration not stated) | 176 °C |
| COC(=O)Cc1ccc(S(C)(=O)=O)c(S(C)(=O)=O)c1 | 157 to 158 °C |
| Cc1cccc(C)c1C(N)=NO | 77 to 79 °C |
| COCCn1cc(C(=O)N2CCC(c3cc(CNC(=O)C(F)(F)F)ccc3F)CC2)c2c(-c3ccncc3)cccc21 | 152 to 155 °C |
| CCCCNC(=O)N1CCC(c2nc(-c3ccc(-c4ccccc4)cc3)c[nH]2)CC1 | 99 to 100 °C |
| Oc1cccc2c1CCCC2N1CCCC1 (configuration not stated) | 151 to 153 °C |
| CCC(=O)N(N(CCCl)S(C)(=O)=O)S(C)(=O)=O | 97 to 98 °C |
| ON=C(c1ccccc1OCc1ccc(Cl)cc1)n1ccnc1 | 196 to 197 °C |
| O=c1c(Cl)c(Cl)sn1C1CCCCC1 | 114 to 116 °C |
| CN(C)C(=S)CCC(c1ccccc1)(c1ccccc1)c1ccccc1 | 114 to 116 °C |
| O=C1NC2(CCCCC2)c2ccccc21 | 232 to 234 °C |
| C=CCn1nc(OCC(=O)c2cccs2)c(-c2ccc(F)cc2)c1-c1ccc(S(C)(=O)=O)cc1 | 146 to 148 °C |
| COC(=O)C(Cc1cc(Br)c(O)c(Br)c1)NC(=O)C(F)(F)F (configuration not stated) | 136 to 137 °C |
| CCOC(=O)CCNCC(O)COc1cccc(OC)c1 (configuration not stated) | 72 °C |
| CC(Cl)C(=O)Oc1coccc1=S (configuration not stated) | 118 to 119 °C |
| CCCCCCCCCCCCCCCC(=O)n1cc(F)c(=O)[nH]c1=O | 98 °C |
| COc1c(C)cnc(CS(=O)c2nc3cc(C(F)(F)F)ccc3[nH]2)c1C (configuration not stated) | 163 °C |
| Cn1nc(C2(OCC3CCN(C(=O)OC(C)(C)C)CC3)C=CC=CC2)c2ccccc2c1=O (configuration not stated) | 167 to 169 °C |
| CC12CC(=O)C3C(CCC4C(Br)C(O)CCC43C)C1CCC2C(=O)CBr (configuration not stated) | 164 to 166 °C |
| O=C(O)C(Cc1ccccc1)Oc1ccc2cc(-c3ccc(-c4ccccc4)[nH]3)ccc2c1 (configuration not stated) | 176 to 178 °C |
| CCOC(=O)C(=CNC(C)(C)C)C(=O)c1cc(F)c(Cl)nc1Cl | 78 °C |
| O=C(O)c1cc2c(F)ccc(Br)c2s1 | 249 to 252 °C |
